This note sets out measurements from US5952368A, “5-aroylpyrrol-2-ylmethylarene derivatives” (Syntex (U.S.A.) Inc., priority 1997, dated 1999).

One experiment concerns the target T1, COX I (Homo sapiens, UniProt P23219).
T1 construct: made in house; baculovirus-infected insect cells by own knowledge of the cited Barnett et al. 1994
As to the kind of experiment: Inhibition of COX I in vitro (radiometric assay, 14C arachidonic acid, partially purified enzyme). Format: biochemical. To be noted: partially purified COX I, 20 micromolar arachidonic acid, 10 min preincubation, room temperature; read-out: COX I IC50. The protocol:
(§1) The COX I and COX II inhibitory activity of compounds of this invention in vitro was determined using partially purified COX I and COX II enzymes, prepared as described in J. Barnett et al., Biochim. Biophys. Acta, 1209:130--139 (1994).
(§2) COX I and COX II samples were diluted with Tris-HCl buffer (50 mM Tris-HCl pH 7.9) containing 2 mM EDTA and 10% glycerol and reconstituted by incubating first with 2 mM phenol for 5 minutes and then with 1 micromolar hematin for an additional 5 minutes. 125 μl of the reconstituted COX I or COX II enzyme were preincubated for 10 minutes at room temperature in a shaking water bath with the compounds of the invention dissolved in 2-15 μl of DMSO or the carrier vehicles (control samples). The enzyme reaction was initiated by adding 25 μl of 1-[14C] arachidonic acid (80,000-100,000 cpm/tube; 20 micromolar final concentration) and the reaction was allowed to continue for an additional 45 seconds. The reaction was terminated by adding 100 μl of 2N HCl and 750 μl water. An aliquot (950 μl) of the reaction mixture was loaded onto a 1 ml C18 Sep-Pak column (J. T. Baker, Phillipsburg, N.J.) which had been previously washed with 2-3 ml methanol and equilibrated with 5-6 ml distilled water. Oxygenated products were quantitatively eluted with 3 ml of acetonitrile/water/acetic acid (50:50:0.1, v/v) and the radioactivity in the eluate determined in a scintillation counter.

In the next experiment the target is T2, COX II (Homo sapiens, UniProt P35354).
T2 construct: made in house; baculovirus-infected insect cells by own knowledge of the cited Barnett et al. 1994
T2 sequence (P35354 18-604): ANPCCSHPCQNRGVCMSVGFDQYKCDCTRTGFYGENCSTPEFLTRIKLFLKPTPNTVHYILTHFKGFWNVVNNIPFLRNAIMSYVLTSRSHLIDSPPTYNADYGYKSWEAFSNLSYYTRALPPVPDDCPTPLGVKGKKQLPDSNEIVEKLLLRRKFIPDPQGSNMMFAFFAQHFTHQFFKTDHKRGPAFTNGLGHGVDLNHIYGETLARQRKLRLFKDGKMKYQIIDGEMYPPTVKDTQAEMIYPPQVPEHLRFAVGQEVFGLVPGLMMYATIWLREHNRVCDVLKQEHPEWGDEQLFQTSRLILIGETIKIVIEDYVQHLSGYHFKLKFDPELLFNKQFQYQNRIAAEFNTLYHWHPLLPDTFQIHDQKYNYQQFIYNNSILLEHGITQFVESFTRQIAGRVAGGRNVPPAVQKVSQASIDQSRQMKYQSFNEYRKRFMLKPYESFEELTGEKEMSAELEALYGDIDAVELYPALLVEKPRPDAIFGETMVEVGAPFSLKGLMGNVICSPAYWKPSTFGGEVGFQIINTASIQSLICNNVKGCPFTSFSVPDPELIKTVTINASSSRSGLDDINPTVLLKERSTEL
Description: Inhibition of COX II in vitro (radiometric assay, 14C arachidonic acid, partially purified enzyme). Type of experiment: biochemical. Particulars: partially purified COX II, 20 micromolar arachidonic acid, 10 min preincubation, room temperature; read-out: COX II IC50. The protocol:
as §1, §2

T1 sequence (P23219 24-599): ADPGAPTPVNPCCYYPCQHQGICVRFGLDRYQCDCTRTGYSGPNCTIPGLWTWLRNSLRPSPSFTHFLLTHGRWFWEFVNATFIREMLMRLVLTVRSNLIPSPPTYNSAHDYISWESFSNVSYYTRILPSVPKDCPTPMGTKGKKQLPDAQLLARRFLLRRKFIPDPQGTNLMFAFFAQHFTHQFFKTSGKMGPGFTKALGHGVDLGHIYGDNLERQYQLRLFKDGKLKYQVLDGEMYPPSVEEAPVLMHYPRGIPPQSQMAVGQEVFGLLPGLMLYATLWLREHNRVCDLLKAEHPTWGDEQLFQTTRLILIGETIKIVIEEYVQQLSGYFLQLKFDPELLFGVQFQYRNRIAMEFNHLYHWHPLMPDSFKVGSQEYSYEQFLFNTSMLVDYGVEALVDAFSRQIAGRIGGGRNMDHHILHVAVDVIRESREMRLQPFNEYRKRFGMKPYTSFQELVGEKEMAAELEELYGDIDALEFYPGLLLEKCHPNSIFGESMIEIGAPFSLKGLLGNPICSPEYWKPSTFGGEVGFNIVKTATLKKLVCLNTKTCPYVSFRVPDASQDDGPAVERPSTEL

With “N-{2-[5-(4-Methylbenzoyl)-1,4-dimethyl-1H-pyrrol-2-ylmethyl]pyridin-5-yl}- 2-(hydroxy)-ethanesulfonamide hydrochloride [compound 272]”, the IC50 at COX I was over 1000 µM; on COX II, 2.1 µM.
Regarding `CCNC(=S)Nc1ccc(Cc2cc(C)c(C(=O)c3ccc(Cl)cc3)n2C)nc1` [compound 314, 1-{2-[5-(4-Chlorobenzoyl)-1,4-dimethyl-1H-pyrrol-2-ylmethyl]pyridin-5-yl}-3-ethyl-2-thiourea], the concentration for half-maximal inhibition (IC50) on COX I amounted to 65 µM; on COX II it was 0.56 µM.
Turning to `COc1ccc(C(=O)c2c(C)cc(Cc3ccc(NS(C)(=O)=O)cc3F)n2C)cc1` [compound 95, N-{3-Fluoro-4-[5-(4-methoxybenzoyl)-1,4-dimethyl-1H-pyrrol-2-ylmethyl]phenyl}-methanesulfonamide], the IC50 stood at 0.09 µM at COX I and 0.06 µM on COX II.
The matching figures for `NS(=O)(=O)Nc1ccc(C2CCn3c(C(=O)c4ccccc4)ccc32)c(Cl)c1` (stereo not drawn) [compound 222, 1-{3-Chloro-4-[5-benzoyl-1,2-dihydro-3H-pyrrolizin-1-yl]phenyl}sulfamide]: 0.46 µM and 0.074 µM.
The matching figures for `Cc1cc(Cc2ccc(NS(=O)(=O)CCO)cc2F)n(C)c1C(=O)c1ccc(F)cc1` [compound 104, N-{3-Fluoro-4-[5-(4-fluorobenzoyl)-1,4-dimethyl-1H-pyrrol-2-ylmethyl]phenyl}-2-(hydroxy)ethanesulfonamide]: 0.75 µM and 0.24 µM.
For `Cc1cc(Cc2ccc(NC(=S)Nc3ccccc3)cn2)n(C)c1C(=O)c1ccc(Cl)cc1` [compound 316, 1-{2-[5-(4-Chlorobenzoyl)-1,4-dimethyl-1H-pyrrol-2-ylmethyl]pyridin-5-yl}-3-phenyl-2-thiourea] the same measures were 360 µM and 0.2 µM.
For the compound `Cc1ccc(C(=O)c2ccc(Cc3ccc(NS(C)(=O)=O)cc3)n2C)cc1` [compound 28, N-{4-[5-(4-Methylbenzoyl)-1-methyl-1H-pyrrol-2-ylmethyl]phenyl}methanesulfonamide], the IC50 at COX I was determined as 33 µM; on COX II, 0.19 µM.
The matching figures for `Cc1cc(Cc2ccc(NS(C)(=O)=O)cc2)n(C)c1C(=O)c1ccc(Cl)cc1` [compound 1, N-{4-[5-(4-Chlorobenzoyl)-1,4-dimethyl-1H-pyrrol-2-ylmethyl]phenyl}methane-sulfonamide]: 11 µM and 0.15 µM.
Consider `CSc1ccc(C(=O)c2c(C)cc(Cc3ccc(N)cc3F)n2C)cc1` [compound 251, 3-Fluoro-4-[5-(4-methylthiobenzoyl)-1,4-dimethyl-1H-pyrrol-2-ylmethyl]aniline], for which the figures for the IC50 on COX I and on COX II were 310 µM and 0.64 µM, respectively.
The matching figures for `COc1ccc(C(=O)c2ccc(Cc3ccc(NS(N)(=O)=O)cn3)n2C)cc1` [compound 306, 1-{2-[5-(4-Methoxybenzoyl)-1-methyl-1H-pyrrol-2-ylmethyl]pyridin-5-yl}sulfamide]: 113 µM and 0.64 µM.
For the compound `Cc1cc(Cc2ccc(NS(=O)(=O)N(C)C)cn2)n(C)c1C(=O)c1ccccc1` [compound 294, 1-{2-[5-Benzoyl-1,4-dimethyl-1H-pyrrol-2-ylmethyl]pyridin-5-yl}-3,3-dimethylsulfamide], the values for the half-maximal inhibitory concentration (IC50) on COX I and at COX II were 9.1 µM and 2.6 µM, respectively.
The matching figures for `COc1ccc(C(=O)c2ccc3n2CCC3c2ccc(NS(=O)(=O)CCO)cc2Cl)cc1` (stereo not drawn) [compound 133, N-{3-Chloro-4-[5-(4-methoxybenzoyl)-1,2-dihydro-3H-pyrrolizin-1-yl]phenyl}-2(hydroxy)ethanesulfonamide]: 0.045 µM and 0.058 µM.
For `COc1ccc(C(=O)c2ccc(Cc3ccc(NS(N)(=O)=O)cc3F)n2C)cc1` [compound 196, 1-{3-Fluoro-4-[5-(4-Methoxybenzoyl)-1-methyl-1H-pyrrol-2-ylmethyl]phenyl}sulfamide] the same measures were 5 µM and 0.04 µM.
In the case of `Cc1cc(Cc2c(F)cc(NS(C)(=O)=O)cc2F)n(C)c1C(=O)c1ccc(Cl)cc1` [compound 27, N-{3,5-Difluoro-4-[5-(4-chlorobenzoyl)-1,4-dimethyl-1H-pyrrol-2-ylmethyl]-phenyl}-methanesulfonamide], the IC50 was found to be 415 µM on COX I and 0.063 µM at COX II.
Consider `Cc1cc(Cc2ccc(NC(=O)Nc3ccccc3)cc2)n(C)c1C(=O)c1ccc(Cl)cc1` [compound 227, 1-{1,4-[5-(4-Chlorobenzoyl)-1,4-dimethyl-1H-pyrrol-2-ylmethyl]phenyl}-3-phenylurea], for which the IC50 on COX I amounted to 2.5 µM; at COX II, 0.1 µM.
The matching figures for `CS(=O)(=O)Nc1ccc(C2CCn3c(C(=O)c4ccccc4)ccc32)c(Cl)c1` (stereo not drawn) [compound 131, N-{3-Chloro-4-[5-Benzoyl-1,2-dihydro-3H-pyrrolizin-1-yl]phenyl}methanesulfonamide]: 0.2 µM and 0.077 µM.
For `Cc1ccc(C(=O)c2ccc(Cc3ccc(NS(N)(=O)=O)cc3F)n2C)cc1` [compound 154, 1-{3-Fluoro-4-[5-(4-methylbenzoyl)-1-methyl-1H-pyrrol-2-ylmethyl]phenyl}sulfamide] the same measures were 34 µM and 0.054 µM.
The matching figures for `Cc1cc(Cc2ccc(NC(=O)N(C)C)cc2)n(C)c1C(=O)c1ccc(Cl)cc1` [compound 226, 1-{1,4-[5-(4-Chlorobenzoyl)-1,4-dimethyl-1H-pyrrol-2-ylmethyl]phenyl}-3,3-dimethylurea]: 100 µM and 2.1 µM.
As for `Cc1cc(Cc2ccc(NS(N)(=O)=O)cc2C#N)n(C)c1C(=O)c1ccc(Cl)cc1` [compound 147, 1-{3-Cyano-4-[5-(4-chlorobenzoyl)-1,4-dimethyl-1H-pyrrol-2-ylmethyl]phenyl}sulfamide], the results for the half-inhibitory concentration (IC50) at COX I and on COX II were 0.6 µM and 0.1 µM, respectively.
The matching figures for `CCNC(=S)Nc1ccc(Cc2cc(C)c(C(=O)c3ccc(Cl)cc3)n2C)cc1` [compound 235]: 8.2 µM and 0.17 µM.
As for `Cc1cc(Cc2ccc(NS(N)(=O)=O)cc2)n(C)c1C(=O)c1ccc(Cl)cc1` [compound 141, 1-{4-[5-(4-Chlorobenzoyl)-1,4-dimethyl-1H-pyrrol-2-ylmethyl]phenyl}sulfamide], the values for the IC50 on COX I and at COX II were 3.9 µM and 0.03 µM, respectively.
The matching figures for `CCS(=O)(=O)Nc1ccc(Cc2cc(C)c(C(=O)c3ccc(OC)cc3)n2C)c(F)c1` [compound 97, N-{3-Fluoro-4-[5-(4-methoxybenzoyl)-1,4-dimethyl-1H-pyrrol-2-ylmethyl]phenyl}-ethanesulfonamide]: under 0.1 µM and 0.038 µM.
The matching figures for `Cc1cc(Cc2ccc(NS(C)(=O)=O)cc2F)n(C)c1C(=O)c1cccs1` [compound 340, N-{3-Fluoro-4-[5-(2-thenoyl)-1,4-dimethyl-1H-pyrrol-2-ylmethyl]phenyl}-methanesulfonamide]: 0.02 µM and 0.06 µM.
For `CCS(=O)(=O)Nc1ccc(Cc2cc(C)c(C(=O)c3ccccc3)n2C)c(F)c1` [compound 68, N-{3-Fluoro-4-[5-benzoyl-1,4-dimethyl-1H-pyrrol-2-ylmethyl]phenyl}ethanesulfonamide], the results for the half-maximal inhibitory concentration (IC50) at COX I and on COX II were 0.86 µM and 0.073 µM, respectively.
